Drawing on US20240190890A1, “MK2 INHIBITORS AND USES THEREOF” (Bristol-Myers Squibb Company, priority 2022, published 2024), this text covers IC50 for 20 compounds.

p38a activated, mitogen-activated protein kinase-activated protein kinase 2 (MAPKAP-K2 or MK2) enzyme, sequence (P49137 whole entry): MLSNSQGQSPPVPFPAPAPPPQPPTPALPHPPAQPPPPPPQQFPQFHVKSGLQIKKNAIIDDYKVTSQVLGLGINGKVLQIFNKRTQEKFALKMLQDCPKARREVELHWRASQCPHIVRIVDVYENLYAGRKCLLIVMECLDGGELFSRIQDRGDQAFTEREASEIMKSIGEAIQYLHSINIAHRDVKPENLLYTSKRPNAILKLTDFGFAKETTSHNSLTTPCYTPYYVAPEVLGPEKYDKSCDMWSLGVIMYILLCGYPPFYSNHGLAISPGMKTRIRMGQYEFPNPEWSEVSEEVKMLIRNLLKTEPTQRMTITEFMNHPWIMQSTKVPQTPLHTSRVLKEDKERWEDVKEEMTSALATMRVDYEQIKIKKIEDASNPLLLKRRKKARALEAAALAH

The target of the assay is p38a activated, mitogen-activated protein kinase-activated protein kinase 2 (MAPKAP-K2 or MK2) enzyme (Homo sapiens (Human), UniProt P49137). The experiment in a line: MK2 Omnia continuous-read kinase assay for compound potency. The format is biochemical. Particulars: [MK-2]=0.4 nM, [ATP]=10 μM, [ST3-Sox]=10 μM; room temperature. The procedure, abridged:
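p38a-activated MK2 (0.4 nM) with 10 μM ATP (apparent Km) and 10 μM S/T3-Sox peptide in Tris pH 7.5 buffer with MgCl2, EGTA and DTT. Fluorescence (ex360/em485) read continuously for 120 min at room temperature. IC50 from initial linear slopes; apparent kinact/KI from kobs of exponential progress-curve fits.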
A word on the IC50: it is the concentration that inhibits the measured activity by half. For the compound `C#Cc1cc(-c2ccc3c(ccc4sc5c(c43)NC[C@@H](C)NC5=O)n2)nc(COCC)n1` [Example I-39, (R)-3-(2-(ethoxymethyl)-6-ethynylpyrimidin-4-yl)-10-methyl-9,10,11,12-tetrahydro-8H-[1,4]diazepino[5′,6′:4,5]thieno[3,2-f]quinolin-8-one], the IC50 is 8 nM. Then `C=Cc1cncc(-c2ccc3c(ccc4sc5c(c43)NC[C@@H](C)NC5=O)n2)n1` [Example I-163, (R)-10-methyl-3-(6-vinylpyrazin-2-yl)-9,10,11,12-tetrahydro-8H-[1,4]diazepino[5′,6′:4,5]thieno[3,2-f]quinolin-8-one], with 109 nM; and `C[C@@H]1CNc2c(sc3ccc4nc(-c5cc(Cl)nc(COC6CCOCC6)n5)ccc4c23)C(=O)N1` [Example I-23, (R)-3-(6-chloro-2-(((tetrahydro-2H-pyran-4-yl)oxy)methyl)pyrimidin-4-yl)-10-methyl-9,10,11,12-tetrahydro-8H-[1,4]diazepino[5′,6′:4,5]thieno[3,2-f]quinolin-8-one], with 487 nM; and `C#Cc1cc(-c2ccc3c(ccc4sc5c(c43)NC[C@@H](C)NC5=O)n2)c(OC)nn1` [Example I-91, (R)-3-(6-ethynyl-3-methoxypyridazin-4-yl)-10-methyl-9,10,11,12-tetrahydro-8H-[1,4]diazepino[5′,6′:4,5]thieno[3,2-f]quinolin-8-one], with 26 nM. Then `C=Cc1cc(-c2ccc3c(ccc4sc5c(c43)NC[C@@H](C)NC5=O)n2)cc(CN2CCC(F)(F)CC2)n1` [Example I-123, (R)-3-(2-((4,4-difluoropiperidin-1-yl)methyl)-6-vinylpyridin-4-yl)-10-methyl-9,10,11,12-tetrahydro-8H-[1,4]diazepino[5′,6′:4,5]thieno[3,2-f]quinolin-8-one], with 31 nM. The result for `C#Cc1cc(-c2ccc3c(ccc4sc5c(c43)NC[C@@H](C)NC5=O)n2)c(CN2CCOCC2)cn1` [Example I-154, (R)-3-(2-ethynyl-5-(morpholinomethyl)pyridin-4-yl)-10-methyl-9,10,11,12-tetrahydro-8H-[1,4]diazepino[5′,6′:4,5]thieno[3,2-f]quinolin-8-one] reads 49 nM. For the compound `C=Cc1ncc(COC2CCOCC2)c(-c2ccc3c(ccc4sc5c(c43)NC[C@@H](C)NC5=O)n2)n1` [Example I-25, (R)-10-methyl-3-(5-(((tetrahydro-2H-pyran-4-yl)oxy)methyl)-2-vinylpyrimidin-4-yl)-9,10,11,12-tetrahydro-8H-[1,4]diazepino[5′,6′:4,5]thieno[3,2-f]quinolin-8-one], the half-maximal inhibitory concentration (IC50) is 43 nM. Then `C=Cc1cc(-c2ccc3c(ccc4sc5c(c43)NC[C@@H](C)NC5=O)n2)c(OCCN2CCOCC2)nn1` [Example I-133, (R)-10-methyl-3-(3-(2-morpholinoethoxy)-6-vinylpyridazin-4-yl)-9,10,11,12-tetrahydro-8H-[1,4]diazepino[5′,6′:4,5]thieno[3,2-f]quinolin-8-one], with 255 nM; and `C#Cc1cc(-c2ccc3c(ccc4sc5c(c43)NC[C@@H](C)NC5=O)n2)ccn1` [Example I-57, (R)-3-(2-ethynylpyridin-4-yl)-10-methyl-9,10,11,12-tetrahydro-8H-[1,4]diazepino[5′,6′:4,5]thieno[3,2-f]quinolin-8-one], with 117 nM. Then `C=Cc1cc(-c2ccc3c(ccc4sc5c(c43)NC[C@@H](C)NC5=O)n2)nc(COCC)n1` [Example I-22, (R)-3-(2-(ethoxymethyl)-6-vinylpyrimidin-4-yl)-10-methyl-9,10,11,12-tetrahydro-8H-[1,4]diazepino[5′,6′:4,5]thieno[3,2-f]quinolin-8-one], with 2 nM; and `C#Cc1cc(-c2ccc3c(ccc4sc5c(c43)NC[C@@H](C)NC5=O)n2)cc(N2CCNCC2)n1` [Example I-176, (R)-3-(2-ethynyl-6-(piperazin-1-yl)pyridin-4-yl)-10-methyl-9,10,11,12-tetrahydro-8H-[1,4]diazepino[5′,6′:4,5]thieno[3,2-f]quinolin-8-one], with 70 nM; and `C#Cc1nccc(-c2ccc3c(ccc4sc5c(c43)NC[C@@H](C)NC5=O)n2)n1` [Example I-40, (R)-3-(2-ethynylpyrimidin-4-yl)-10-methyl-9,10,11,12-tetrahydro-8H-[1,4]diazepino[5′,6′:4,5]thieno[3,2-f]quinolin-8-one], with 25 nM.

For the compound `C[C@@H]1CNc2c(sc3ccc4nc(-c5cnc(Cl)[nH]5)ccc4c23)C(=O)N1` [Example I-151, (R)-3-(2-chloro-1H-imidazol-5-yl)-10-methyl-9,10,11,12-tetrahydro-8H-[1,4]diazepino[5′,6′:4,5]thieno[3,2-f]quinolin-8-one], the IC50 was 23 nM. The result for `C/C=C\c1ncc(COCC)c(-c2ccc3c(ccc4sc5c(c43)NC[C@@H](C)NC5=O)n2)n1` [Example I-49, (R,Z)-3-(5-(ethoxymethyl)-2-(prop-1-en-1-yl)pyrimidin-4-yl)-10-methyl-9,10,11,12-tetrahydro-8H-[1,4]diazepino[5′,6′:4,5]thieno[3,2-f]quinolin-8-one] reads 474 nM; that for `C#Cc1cc(-c2ccc3c(ccc4sc5c(c43)NC[C@@H](C)NC5=O)n2)cnn1` [Example I-51, (R)-3-(6-ethynylpyridazin-4-yl)-10-methyl-9,10,11,12-tetrahydro-8H-[1,4]diazepino[5′,6′:4,5]thieno[3,2-f]quinolin-8-one], 3 nM; that for `COc1nnc(/C=C/C(F)(F)F)cc1-c1ccc2c(ccc3sc4c(c32)NC[C@@H](C)NC4=O)n1` [Example I-200, (R,E)-3-(3-methoxy-6-(3,3,3-trifluoroprop-1-en-1-yl)pyridazin-4-yl)-10-methyl-9,10,11,12-tetrahydro-8H-[1,4]diazepino[5′,6′:4,5]thieno[3,2-f]quinolin-8-one], 1000 nM.

Consider `C=Cc1cc(-c2ccc3c(ccc4sc5c(c43)NC[C@@H](C)NC5=O)n2)c(CN2CC(F)(F)C2)cn1` [Example I-211, (R)-3-(5-((3,3-difluoroazetidin-1-yl)methyl)-2-vinylpyridin-4-yl)-10-methyl-9,10,11,12-tetrahydro-8H-[1,4]diazepino[5′,6′:4,5]thieno[3,2-f]quinolin-8-one], for which the IC50 turned out to be 275 nM. For `C=Cc1cnc(C)c(-c2ccc3c(ccc4sc5c(c43)NC[C@@H](C)NC5=O)n2)n1` [Example I-181, (R)-10-methyl-3-(3-methyl-6-vinylpyrazin-2-yl)-9,10,11,12-tetrahydro-8H-[1,4]diazepino[5′,6′:4,5]thieno[3,2-f]quinolin-8-one], the IC50 was found to be 39 nM. In the case of `C#Cc1cc(-c2ccc3c(ccc4sc5c(c43)NC[C@@H](C)NC5=O)n2)cc(CN2C[C@@H](C)O[C@@H](C)C2)n1` [Example I-186, (R)-3-(2-(((2S,6R)-2,6-dimethylmorpholino)methyl)-6-ethynylpyridin-4-yl)-10-methyl-9,10,11,12-tetrahydro-8H-[1,4]diazepino[5′,6′:4,5]thieno[3,2-f]quinolin-8-one], the 50% inhibitory concentration (IC50) turned out to be 26 nM. The result for `C=C(CN1CCOCC1)c1cc(-c2ccc3c(ccc4sc5c(c43)NC[C@@H](C)NC5=O)n2)ccn1` [Example I-131, (R)-10-methyl-3-(2-(3-morpholinoprop-1-en-2-yl)pyridin-4-yl)-9,10,11,12-tetrahydro-8H-[1,4]diazepino[5′,6′:4,5]thieno[3,2-f]quinolin-8-one] reads 3 nM.
